System: adult patients with early type 2 diabetes mellitus and increased CV risk or established complications
Test: Cardiovascular Safety Trial (linagliptin versus glimepiride)
Type: in vivo
Protocol: The effect of linagliptin on cardiovascular risk in adult patients with early type 2 diabetes mellitus and increased CV risk or established complications was evaluated in this Cardiovascular Safety Trial, a multi-center, multi-national, randomized, double-blind parallel group trial. The trial compared the risk of experiencing a major adverse cardiovascular event (MACE) between linagliptin and glimepiride when these were added to standard of care (including background therapy with metformin) based on regional standards for HbA1c and CV risk factors. The trial was event driven and patients were followed until at least 631 primary outcome events accrued.
A total of 6033 patients were treated (linagliptin 5 mg=3023; glimepiride 1 mg to 4 mg=3010) and followed for a median of 6.25 years (median time on treatment 5.9 years). Approximately 73% of the study population was Caucasian, 18% was Asian, and 5% was Black. The mean age was 64 years and 60% were male.
At baseline, disease characteristics were balanced. […] The trial population included 2030 (34%) patients ≥70 years of age, 2089 (35%) patients with cardiovascular disease, and 1130 (19%) patients with renal impairment with an eGFR <60 mL/min/1.73 m2 at baseline. Overall, the previous use of diabetes medications was balanced across treatment groups (metformin 83% continued as background therapy, sulfonylurea 28% discontinued prior to randomization), patients on insulin were excluded. The use of medications to reduce cardiovascular risk was also balanced (aspirin 47%, statins 65%, ACE inhibitors or ARBs 74%, beta blockers 39%, and calcium channel blockers 30%).
The primary endpoint in this Cardiovascular Safety Trial was the time to first occurrence of three point (3P) MACE. A major adverse cardiac event was defined as a cardiovascular death or a nonfatal myocardial infarction (MI) or a nonfatal stroke. The statistical analysis plan tested for non-inferiority for the occurrence of 3P MACE. The key secondary endpoint evaluated the composite of treatment sustainability defined as the proportion of patients on study treatment, that maintain glycemic control (HbA1c≤7.0%) without need for additional antidiabetic drug therapy (rescue medication), without any moderate (symptomatic with glucose value <70 mg/dL) or severe (requiring assistance) hypoglycemic episodes, and without >2% weight gain from baseline.
Cardiovascular Outcome Trial of Linagliptin Versus Glimepriride in Type 2 Diabetes—assessing long-term cardiovascular impact of linagliptin versus the sulphonylurea glimepiride in subjects with early type 2 diabetes and increased cardiovascular risk or established complications. […]
Type 2 diabetes patient with insufficient glycemic control (naïve or currently treated (mono or dual therapy) with e.g. metformin and/or an alpha-glucosidase inhibitor (e.g. having HbA1c 6.5-8.5%), or currently treated (mono or dual therapy) with e.g. a sulphonylurea or glinide, with or without metformin or an alpha-glucosidase inhibitor (e.g. having HbA1c 6.5-7.5%)) and increased or high risk of cardiovascular events, e.g. defined as one or more of risk factors A), B), C) and D) indicated below, are randomized* and treated over a lengthy period (e.g. up to 432 weeks) with linagliptin (5 mg, q.d., optionally in combination with one or more other active substances, e.g. such as added to existing antidiabetic background) and compared with patients treated with the sulphonylurea glimepiride (1-4 mg once daily). * Upon randomization, if a patient is on a SU or glinide, this secretagogue therapy is discontinued and replaced with study medication. For patients not on a secretagogue, study medication is added to the existing regimen.
Time to first occurrence of any of the following adjudicated components of the primary composite endpoint: […]

[1] = baseline to Final Visit, observed cases including values after rescue medication
[2] = both, human, in vivo, 5.9 years
[3] = both, human, in vivo, 6.25 years
[4] = component of secondary composite
[5] = from end of titration (16 weeks) to final visit
[6] = median follow-up 6.25 years, listed as linagliptin

CC#CCn1c(N2CCC[C@@H](N)C2)nc2c1c(=O)n(Cc1nc(C)c3ccccc3n1)c(=O)n2C [Linagliptin, 1-[(4-methyl-quinazolin-2-yl)methyl]-3-methyl-7-(2-butyn-1-yl)-8-(3-(R)-amino-piperidin-1-yl)-xanthine]
patients with macroalbuminuria (>300 mg/g) (at Final Visit): 1.4% | patients with microalbuminuria (≥30 to ≤300 mg/g) (at Final Visit): 14.1% | patients with normal UACR (<30 mg/g) (at baseline and at Final Visit): 58.4% | HBA1c, Change from baseline, adjusted mean (baseline to Final Visit, all observed cases): 0.06% | Creatinine, Change from baseline, adjusted mean [1]: 0.08 mg/dL | HDL, Change from baseline, adjusted mean [1]: 0.7 mg/dL | LDL, Change from baseline, adjusted mean [1]: -6.1 mg/dL | Total cholesterol, Change from baseline, adjusted mean [1]: -5.4 mg/dL | Triglyceride, Change from baseline, adjusted mean [1]: 1.7 mg/dL | Urinary albumin, Change from baseline, adjusted mean [1]: 43.4 mg/dL | third key secondary endpoint of treatment sustainability (on medication, HbA1c≤7.0%, no rescue, no >2% weight gain), responders (between Visit 6 and Final Visit): 17.4% | Hospitalization for heart failure (HHF), Incidence Rate per 1000 PY (both, human, in vivo): 6.4 per 1000 PY | Hospitalization for heart failure (HHF), Number of Subjects (both, human, in vivo): 112 | Moderate/severe hypoglycaemic episodes, odds ratio (both, human, in vivo): 0.16 | Patients with any moderate/severe hypoglycemic episodes, Number of Subjects (both, human, in vivo): 163 | Patients with any moderate/severe hypoglycemic episodes, Subjects (%) (both, human, in vivo): 5.6% | Secondary CV composite (4P-MACE), Incidence Rate per 1000 PY (both, human, in vivo): 23.4 per 1000 PY | rate of moderate or severe hypoglycemia [2]: 6.5% | severe hypoglycemia (requiring assistance) [2]: 0.3% | Premature discontinuation from trial medication due to adverse events [3]: 15.1% | Primary CV composite (3P-MACE), Hazard Ratio [3]: 0.98 | Primary CV composite (3P-MACE), Incidence Rate per 1000 PY [3]: 20.7 per 1000 PY | Secondary CV composite (4P-MACE), Hazard Ratio [3]: 0.99 | all-cause mortality, incidence rate per 1000 years at risk [3]: 16.8 per 1000 years at risk | any adjudicated event (secondary CV endpoint), % of patients [3]: 17.1% | any adjudicated event, HR [3]: 0.96 | hospitalisation for heart failure combined with CV death, incidence rate per 1000 years at risk [3]: 13.4 per 1000 years at risk | hospitalisation for heart failure, incidence rate per 1000 years at risk [3]: 6.4 per 1000 years at risk | investigator-reported heart failure AEs, % of patients [3]: 5.5% | investigator-reported heart failure AEs, HR [3]: 1.06 | investigator-reported heart failure AEs, incidence rate per 1000 years at risk [3]: 9.5 per 1000 years at risk | non-CV death, % of patients [3]: 4.6% | non-CV death, incidence rate per 1000 years at risk [3]: 7.6 per 1000 years at risk | proportion of patients with CV death contributing to the 3P-MACE [3]: 4.3% | proportion of patients with CV death contributing to the 4P-MACE [3]: 4.1% | proportion of patients with hospitalisation for unstable angina pectoris contributing to the 4P-MACE [3]: 1.9% | proportion of patients with non-fatal MI contributing to the 3P-MACE [3]: 4.7% | proportion of patients with non-fatal MI contributing to the 4P-MACE [3]: 4.4% | proportion of patients with non-fatal stroke contributing to the 3P-MACE [3]: 2.8% | proportion of patients with non-fatal stroke contributing to the 4P-MACE [3]: 2.8% | Creatinine, Comparison vs. glimepiride, Adjusted mean (change baseline to Final Visit): -0.01 mg/dL | FPG, Comparison vs. glimepiride, Adjusted mean (change baseline to Final Visit): -7.3 mg/dL | HBA1c, Comparison vs. glimepiride, Adjusted mean (change baseline to Final Visit): −0.09% | HDL, Comparison vs. glimepiride, Adjusted mean (change baseline to Final Visit): 0.5 mg/dL | LDL, Comparison vs. glimepiride, Adjusted mean (change baseline to Final Visit): 0.4 mg/dL | Total cholesterol, Comparison vs. glimepiride, Adjusted mean (change baseline to Final Visit): -0.4 mg/dL | Triglyceride, Comparison vs. glimepiride, Adjusted mean (change baseline to Final Visit): -3.5 mg/dL | Urinary albumin, Comparison vs. glimepiride, Adjusted mean (change baseline to Final Visit): -1.9 mg/dL | Patients with maintained glycemic control (HbA1c ≤7.0%), Number of Subjects [4]: 648 | Patients with maintained glycemic control (HbA1c ≤7.0%), Subjects (%) [4]: 21.5% | Patients with ≤2% weight gain, Number of Subjects [4]: 775 | Patients with ≤2% weight gain, Subjects (%) [4]: 25.7% | Secondary composite of treatment sustainability (on treatment, HbA1c ≤7.0%, no rescue, no moderate/severe hypoglycemic episodes, no >2% weight gain), Number of Subjects [5]: 481 | Secondary composite of treatment sustainability (second key secondary endpoint), Subjects (%) [5]: 16.0% | first intake of rescue medication, incidence rate per 1000 years at risk (in vivo): 128.6 per 1000 years at risk | rate of patients who used rescue medication (in vivo): 49.3% | safety profile in this trial population (in words) (in vivo): no new safety signal | time to 3P-MACE, non-inferiority test (in words) (in vivo): non-inferior | weight, adjusted mean difference (linagliptin compared with glimepiride over time): -1.61 kg | All-cause mortality, Hazard Ratio (linagliptin vs glimepiride): 0.91 | HHF or CV death, Hazard Ratio (linagliptin vs glimepiride): 1.00 | non-CV death, hazard ratio (linagliptin vs glimepiride): 0.82 | third key secondary endpoint of treatment sustainability, OR (linagliptin vs glimepiride): 1.29 | HHF or CV death, Hazard Ratio (linagliptin vs glimepiride, listed as linagliptin): 1.00 | Secondary composite of treatment sustainability (second key secondary endpoint), Odds Ratio (linagliptin vs glimepiride, logistic regression): 1.68 | All-cause mortality, Incidence Rate per 1000 PY (median follow-up 6.25 years): 16.8 per 1000 PY | All-cause mortality, Number of Subjects (median follow-up 6.25 years): 308 | All-cause mortality, Subjects (%) (median follow-up 6.25 years): (10.2) % | HHF or CV death, Incidence Rate per 1000 PY (median follow-up 6.25 years): 13.4 per 1000 PY | HHF or CV death, Number of Subjects (median follow-up 6.25 years): 236 | HHF or CV death, Subjects (%) (median follow-up 6.25 years): (7.8) % | Secondary CV composite (cardiovascular death, non-fatal MI, non-fatal stroke and hospitalization for unstable angina; 4P-MACE), Number of Subjects (median follow-up 6.25 years): 398 | Primary CV composite (cardiovascular death, non-fatal MI, non-fatal stroke; 3P-MACE), Number of Subjects (median follow-up 6.25 years, added to standard of care): 356 | All-cause mortality, Subjects (%) [6]: 10.2% | HHF or CV death, Subjects (%) [6]: 7.8% | weight change (in words) (over time): modest decrease in weight

From patent US20240398818A1, “Cardiosafe Antidiabetic Therapy” (priority 2018, published 2024)
